Data taken from patent US20240208961A1, “EIF4E INHIBITORS AND USES THEREOF” (PIC Therapeutics, Inc., priority 2022, published 2024).
Values joined by “and” are separate entries in the source; they are usually repeats but may differ in a detail not shown here. Equal entries are not always repeated. Where two headings read alike, the source gives them in different places.

Assays:
[1] = Pharmacokinetic studies of certain compounds in female Balb/c mice (Example 5); type: in vivo; conditions: for concentration at 0.083 h / concentration at 0.25 h / concentration at 0.5 hr / concentration at 1 hr / concentration at 2 hr / concentration at 4 hr / concentration at 8 hr / concentration at 24 hr / concentration at 0.5 h / concentration at 1 h / concentration at 2 h / concentration at 4 h / concentration at 8 h / concentration at 24 h: female, Balb/c
Outline: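 Female Balb/c mice (N=9) were fasted overnight and given compound PO as a suspension in 1% CMC/0.2% Tween 80 or IV in 5% DMSO/5% Solutol HS15/90% saline. Facial-vein plasma was taken from 0.083 to 24 h and assayed by LC-MS. Parameters are non-compartmental, and F was based on AUCINF or AUClast.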

ZR-75-1 = experiment: Cell viability assay, adherent cell line, 5 day Alamar Blue (Example 8): ZR-75-1; type: cell-based; conditions: Homo sapiens, 120 h, ZR-75-1, Breast Cancer Cell Viability
[2] = mouse, plasma, I-27 PO 30 mg/kg

## CC(C)Cc1sc(Nc2ncc(-c3cccs3)cc2C(=O)O)nc1C1(C)CCCCC1 [Compound I-27]
[1]; I-27 IV 1 mg/kg, 0.083 hr, 1 mg/kg
  Plasma concentration Individual: 4810 ng/mL and 5030 ng/mL
[1]; I-27 IV 1 mg/kg, 0.25 hr, 1 mg/kg
  Plasma concentration Individual: 1300 ng/mL and 1270 ng/mL
[1]; I-27 IV 1 mg/kg, 0.5 hr, 1 mg/kg
  Plasma concentration Individual: 584 ng/mL and 448 ng/mL
[1]; I-27 IV 1 mg/kg, 1 hr, 1 mg/kg
  Plasma concentration Individual: 393 ng/mL and 335 ng/mL
[1]; I-27 IV 1 mg/kg, 2 hr, 1 mg/kg
  Plasma concentration Individual: 213 ng/mL and 163 ng/mL
[1]; I-27 IV 1 mg/kg, 4 hr, 1 mg/kg
  Plasma concentration Individual: 31.7 ng/mL and 29.9 ng/mL
[1]; I-27 IV 1 mg/kg, 8 hr, 1 mg/kg
  Plasma concentration Individual: 5.02 ng/mL and 8.89 ng/mL
[1]; I-27 IV 1 mg/kg, 24 hr, BQL = below quantifiable limit of 1.00 ng/mL, 1 mg/kg
  Plasma concentration Individual: BQL
[1]; I-27 PO 30 mg/kg vs IV 1 mg/kg
  F: 27.4%
[1]; I-27 PO 30 mg/kg, 0.083 hr, 30 mg/kg
  Plasma concentration Individual: 80.4 ng/mL and 62.5 ng/mL
[1]; I-27 PO 30 mg/kg, 0.25 hr, 30 mg/kg
  Plasma concentration Individual: 368 ng/mL and 587 ng/mL
[1]; I-27 PO 30 mg/kg, 0.5 hr, 30 mg/kg
  Plasma concentration Individual: 1590 ng/mL and 1270 ng/mL
[1]; I-27 PO 30 mg/kg, 1 hr, 30 mg/kg
  Plasma concentration Individual: 2120 ng/mL and 2090 ng/mL
[1]; I-27 PO 30 mg/kg, 2 hr, 30 mg/kg
  Plasma concentration Individual: 2860 ng/mL and 1950 ng/mL
[1]; I-27 PO 30 mg/kg, 4 hr, 30 mg/kg
  Plasma concentration Individual: 2160 ng/mL and 1760 ng/mL
[1]; I-27 PO 30 mg/kg, 8 hr, 30 mg/kg
  Plasma concentration Individual: 715 ng/mL and 493 ng/mL
[1]; I-27 PO 30 mg/kg, 24 hr, 30 mg/kg
  Plasma concentration Individual: 11.0 ng/mL and 10.1 ng/mL
[1]; mouse, plasma, iv, 1 mg/kg, I-27 IV 1 mg/kg, 0.083 hr, read-out: Plasma concentration Individual
  concentration at 0.083 h: 4410 ng/mL
[1]; mouse, plasma, iv, 1 mg/kg, I-27 IV 1 mg/kg, 0.083 hr, read-out: Plasma concentration Mean
  concentration at 0.083 h: 4750 ng/mL
[1]; mouse, plasma, iv, 1 mg/kg, I-27 IV 1 mg/kg, 0.25 hr, read-out: Plasma concentration Individual
  concentration at 0.25 h: 865 ng/mL
[1]; mouse, plasma, iv, 1 mg/kg, I-27 IV 1 mg/kg, 0.25 hr, read-out: Plasma concentration Mean
  concentration at 0.25 h: 1140 ng/mL
[1]; mouse, plasma, iv, 1 mg/kg, I-27 IV 1 mg/kg, 0.5 hr, read-out: Plasma concentration Individual
  concentration at 0.5 hr: 638 ng/mL
[1]; mouse, plasma, iv, 1 mg/kg, I-27 IV 1 mg/kg, 0.5 hr, read-out: Plasma concentration Mean
  concentration at 0.5 hr: 557 ng/mL
[1]; mouse, plasma, iv, 1 mg/kg, I-27 IV 1 mg/kg, 1 hr, read-out: Plasma concentration Individual
  concentration at 1 hr: 341 ng/mL
[1]; mouse, plasma, iv, 1 mg/kg, I-27 IV 1 mg/kg, 1 hr, read-out: Plasma concentration Mean
  concentration at 1 hr: 356 ng/mL
[1]; mouse, plasma, iv, 1 mg/kg, I-27 IV 1 mg/kg, 2 hr, read-out: Plasma concentration Individual
  concentration at 2 hr: 142 ng/mL
[1]; mouse, plasma, iv, 1 mg/kg, I-27 IV 1 mg/kg, 2 hr, read-out: Plasma concentration Mean
  concentration at 2 hr: 173 ng/mL
[1]; mouse, plasma, iv, 1 mg/kg, I-27 IV 1 mg/kg, 4 hr, read-out: Plasma concentration Individual
  concentration at 4 hr: 55.9 ng/mL
[1]; mouse, plasma, iv, 1 mg/kg, I-27 IV 1 mg/kg, 4 hr, read-out: Plasma concentration Mean
  concentration at 4 hr: 39.2 ng/mL
[1]; mouse, plasma, iv, 1 mg/kg, I-27 IV 1 mg/kg, 8 hr, read-out: Plasma concentration Individual
  concentration at 8 hr: 7.46 ng/mL
[1]; mouse, plasma, iv, 1 mg/kg, I-27 IV 1 mg/kg, 8 hr, read-out: Plasma concentration Mean
  concentration at 8 hr: 7.12 ng/mL
[1]; mouse, plasma, iv, 1 mg/kg, I-27 IV 1 mg/kg, 24 hr, BQL = below quantifiable limit of 1.00 ng/mL, read-out: Plasma concentration Individual
  concentration at 24 hr: 1.09 ng/mL
[1]; mouse, plasma, iv, 1 mg/kg, I-27 IV 1 mg/kg, 24 hr, BQL = below quantifiable limit of 1.00 ng/mL, read-out: Plasma concentration Mean
  concentration at 24 hr: 1.09 ng/mL
[1]; mouse, plasma, po, 30 mg/kg, I-27 PO 30 mg/kg, 0.083 hr, read-out: Plasma concentration Individual
  concentration at 0.083 h: 40.5 ng/mL
[1]; mouse, plasma, po, 30 mg/kg, I-27 PO 30 mg/kg, 0.083 hr, read-out: Plasma concentration Mean
  concentration at 0.083 h: 61.1 ng/mL
[1]; mouse, plasma, po, 30 mg/kg, I-27 PO 30 mg/kg, 0.25 hr, read-out: Plasma concentration Individual
  concentration at 0.25 h: 448 ng/mL
[1]; mouse, plasma, po, 30 mg/kg, I-27 PO 30 mg/kg, 0.25 hr, read-out: Plasma concentration Mean
  concentration at 0.25 h: 468 ng/mL
[1]; mouse, plasma, po, 30 mg/kg, I-27 PO 30 mg/kg, 0.5 hr, read-out: Plasma concentration Individual
  concentration at 0.5 h: 2080 ng/mL
[1]; mouse, plasma, po, 30 mg/kg, I-27 PO 30 mg/kg, 0.5 hr, read-out: Plasma concentration Mean
  concentration at 0.5 h: 1650 ng/mL
[1]; mouse, plasma, po, 30 mg/kg, I-27 PO 30 mg/kg, 1 hr, read-out: Plasma concentration Individual
  concentration at 1 h: 1930 ng/mL
[1]; mouse, plasma, po, 30 mg/kg, I-27 PO 30 mg/kg, 1 hr, read-out: Plasma concentration Mean
  concentration at 1 h: 2050 ng/mL
[1]; mouse, plasma, po, 30 mg/kg, I-27 PO 30 mg/kg, 2 hr, read-out: Plasma concentration Individual
  concentration at 2 h: 2040 ng/mL
[1]; mouse, plasma, po, 30 mg/kg, I-27 PO 30 mg/kg, 2 hr, read-out: Plasma concentration Mean
  concentration at 2 h: 2280 ng/mL
[1]; mouse, plasma, po, 30 mg/kg, I-27 PO 30 mg/kg, 4 hr, read-out: Plasma concentration Individual
  concentration at 4 h: 2050 ng/mL
[1]; mouse, plasma, po, 30 mg/kg, I-27 PO 30 mg/kg, 4 hr, read-out: Plasma concentration Mean
  concentration at 4 h: 1990 ng/mL
[1]; mouse, plasma, po, 30 mg/kg, I-27 PO 30 mg/kg, 8 hr, read-out: Plasma concentration Individual
  concentration at 8 h: 613 ng/mL
[1]; mouse, plasma, po, 30 mg/kg, I-27 PO 30 mg/kg, 8 hr, read-out: Plasma concentration Mean
  concentration at 8 h: 607 ng/mL
[1]; mouse, plasma, po, 30 mg/kg, I-27 PO 30 mg/kg, 24 hr, read-out: Plasma concentration Individual
  concentration at 24 h: 14.2 ng/mL
[1]; mouse, plasma, po, 30 mg/kg, I-27 PO 30 mg/kg, 24 hr, read-out: Plasma concentration Mean
  concentration at 24 h: 11.8 ng/mL
[1]; mouse, plasma, I-27 IV 1 mg/kg
  AUC(0-inf): 2170 ng·h/mL
  AUC(0-t): 2160 ng·h/mL
  C0: 9630 ng/mL
  MRT inf: 1.13 h
  MRT last: 1.04 h
  clearance: 7.68 mL/min/kg
  half-life: 4.29 h
[1]; mouse, plasma, I-27 IV 1 mg/kg, read-out: Vss
  Vd: 0.52 L/kg
[1]; [2]
  AUC(0-inf): 17900 ng·h/mL
  AUC(0-t): 17800 ng·h/mL
  Cmax: 2280 ng/mL
  MRT inf: 4.74 h
  MRT last: 4.68 h
  Tmax: 2 h
  half-life: 2.73 h
ZR-75-1
  IC50: ≤ 1 µM
